Data: patent US20110214190A1, “TRANSGENIC REPORTER MOUSE AND METHOD FOR USE” (priority 2008, published 2011)
Like-named read-outs stand apart in the source and are kept apart here. Peptide text beside a SMILES is read from it. * marks the point of attachment. Cbz = O=C(OCc1ccccc1)*

Key:
[1] = cited from earlier work
[2] = system: Nf-κβ signaling; assay: Nf-κβ inhibitors on LipidA induced Luc/mC expression in vivo; parameters: species or system mouse
Excerpt: A signaling pathway known to activate NGAL expression was taken advantage of in order to examine whether Luc2/mC expression was reversible after cessation of the stimulus. […] Subsequently, Nf-κβ mediates NGAL transcription. […] In addition, the testis is one of the few sites that tonically expresses NGAL and Luc2/mC, and even this site was suppressed by these inhibitors.

[3] = system: PARP; conditions: after onset of acute hindlimb ischemia (post hoc), during I/R; cited from earlier work
[4] = system: cells from reporter kidneys; assay: NGAL-luciferase activity in primary cells from reporter kidneys; assay type: cell-based, mouse; conditions: plates seeded with cells from reporter kidneys
Excerpt: NGAL di-fusion primary cells from whole organs. Whole kidney cells were obtained from the NGAL di-fusion reporter mice (8-12 weeks of age) using collagenase (Sigma) digestion, differential sieving and seeded at a density of 1×10^5 per well. Cells were washed with a buffered salt solution and grown overnight before exposure to TLR agonists, ROS inducing species or toxin. Plates were imaged in the Xenogen IVIS optical imaging system (Xenogen Corp., Almeda, Calif.) for NGAL-luciferase activity.
Bioluminescence and Fluorescence Imaging of mCherry and luciferase Expression in Living Mice and primary cell lines. For in vivo bioluminescence imaging, mice were anesthetized, and injected with 150 mg/kg of luciferin in PBS (pH 7) via IP injection that is allowed to distribute in awake animals for about 10 minutes. […] Regions of interest (ROIs) were drawn on the dorsal side of the animal and quantified by using Living Image Software version 3.1. Counts detected in the ROIs by the CCD camera digitizer can by converted to physical units of radiance in photons/s/cm2/steradian. […] NGAL reporter primary cells were first imaged for mCherry activity with block excitation and block emission and NGAL-luciferase activity was quantified by detection of light emitted after cell lysis and incubation with luciferin. […]

[5] = system: cyst growth; conditions: polycystic kidney disease model; cited from earlier work
[6] = system: NGAL expression; assay: Cell stressors, NGAL expression; assay type: cell-based; conditions: H202 1 mmol/L for 4 hours
[7] = system: NGAL message; assay: NGAL message (real-time PCR) in kidney after LipidA; assay type: in vivo, mouse; conditions: 30 mg/kg LipidA
Method: Real-Time PCR were prepared according to Bio-Rad SYBR GREEN, iCyclerMyiQ protocols. Target genes, including Ngal, β-actin, utilized respectively: Ngal 116 forward primer 5′-[…]-3′ and NGALa593 reverse 5′-[…]-3′; β-actin415 forward primer 5′-[…]-3′ and β-actin 696 reverse primer 5′-[…]-3′. The ΔΔCT method was used to calculate fold amplification of transcripts.
Real Time PCR analysis. Samples were processed according to Bio-Rad SYBR GREEN, iCyclerMyiQ protocols. Target genes utilized respectively: Ngal 116 forward primer 5′-[…]-3′ and NGALa593 reverse 5′-[…]-3′; β-actin415 forward primer 5′-[…]-3′ and β-actin 696 reverse primer 5′-[…]-3′. The ΔΔCT method was used to calculate fold amplification of transcripts.

[8] = system: NGAL message; assay: Ngal in situ hybridization of kidney after lipidA challenge; assay type: in vivo, mouse; conditions: after LipidA treatment
Method: In situ hybridization. NGAL RNA was detected using digoxigenin-labeled antisense riboprobes generated from cDNAs encoding Ngal (exon 1-7, 566 bp) by linearization with XhoI followed by T7 RNA polymerase. Kidneys were collected in ice-cold PBS and fixed overnight at 4° C. in 4% paraformaldehyde (PFA) in 0.1 M phosphate buffer saline (PBS), briefly quenched in 50 mM NH4Cl, cryoprotected overnight in 30% sucrose PBS and embedded and sectioned ([…]) in O.C.T. compound. The sections were post-fixed in 4% PFA for 10 min, treated with proteinase K (1 mg/ml for 3 min), acetylated and prehybridized for 2 hrs, and then hybridized at 68-72° C. overnight. The prehybridization and hybridization solution was 50% formamide, 5′SSC, 5′ Denhardts, […] baker's yeast RNA (Sigma), and […] herring sperm DNA (Sigma). Sections were washed at 72° C. in 5′SSC for 5-10 minutes, then at 72° C. in 0.2′SSC for 1 hour and then stained overnight (4° C.) with an anti-digoxigenin antibody coupled with alkaline phosphatase (Boehringer-Mannheim), at a 1:5000 dilution in 0.1 M Tris-HCl, pH 7.5, 0.15 M NaCl, 1% heat inactivated goat serum. Alkaline phosphatase activity was detected using BCIP, NBT (Boehringer-Mannheim) with 0.25 mg/ml levamisole in a humidified chamber for 1-3 days in the dark. Sections were dehydrated and mounted in Permount (Fisher Scientific). […]

[9] = system: NGAL reporter ES cells; assay: NGAL-luciferase responsiveness in NGAL reporter ES cells; assay type: cell-based, mouse; conditions: NGAL reporter ES cells exposed to stimulant; control conditions no detectable expression
Excerpt: […]. […] […]. Verification of the germline-transmitted F1 mice. The targeted allele was PCR-amplified by using primers F2, and R3 which was from the 1 Kb DNA fragment replaced by a DTA-AMP^r cassette in the targeting construct.
NGAL targeting in mouse ES cells. The NGAL-targeting construct was electroporated into the KV1 ES cells, and the neomycin-resistant ES clones were PCR-screened for the targeted NGAL allele for homologous recombination. Additionally, ES cells containing the NGAL di-fusion gene were challenged with either cisplatin or LPS to induce NGAL reporter activity (FIG. 1B, Panel D). ES cells with a Luc2-mCherry-LNL knockin allele were microinjected into wild-type C57B6 blastocysts to generate chimera which were subsequently mated with albino C57B6 female mice for germline transmission. The F1 mice were PCR-genotyped by using primers F1, R1 and R2, and the germline transmitted mice contained both targeted and wild type alleles (FIG. 1B, Panel C).
Luciferase (pGL4.10[luc2], Promega E6651) and mCherry (pmCherry [mC], Clontech 632522) genes separated by a 42 by spacer were ligated by overlap PCR and validated in 293T cells using a CMV promoter to drive robust Luc2 and mC bioluminescence and fluorescence (FIG. 1A, Panel A). […]

[10] = system: NGAL-Luc2/mC reporter; assay: In vivo bioluminescence imaging of NGAL di-fusion reporter mouse after LipidA; conditions: for NGAL activity assayed by luciferase (Luc2/mC response): kidney, liver, spleen, skin and lung, 24 hours after lipidA i.p. at 5, 15 and 30 mg/kg
Method: Bioluminescence and Fluorescence Imaging of mCherry and luciferase Expression in Living Mice and primary cell lines. For in vivo bioluminescence imaging, mice were anesthetized, and injected with 150 mg/kg of luciferin in PBS (pH 7) via IP injection that is allowed to distribute in awake animals for about 10 minutes. […]. Mice are then placed in a light tight chamber equipped with a halogen light source, and whole body image was acquired for 30 seconds using the Xenogen IVIS optical imaging system with a block excitation filter and a block emission filter for NGAL-mCherry visualization and an open emission filter for NGAL-luciferase activity. Regions of interest (ROIs) were drawn on the dorsal side of the animal and quantified by using Living Image Software version 3.1. Counts detected in the ROIs by the CCD camera digitizer can by converted to physical units of radiance in photons/s/cm2/steradian. Visualization of NGAL di-fusion reporter activity in primary cells were also assayed in the bioimager. NGAL reporter primary cells were first imaged for mCherry activity with block excitation and block emission and NGAL-luciferase activity was quantified by detection of light emitted after cell lysis and incubation with luciferin.

[11] = assay type: in vivo, mouse
Excerpt: Identification of Hidden Damage. Serum creatinine was little changed in our model of unilateral ischemia, because the untouched contralateral kidney limited the opportunity for azotemia.

## NCC(=O)O.[CH+]=O.[CH+]=O.[CH+]=O.[Cl][Ru] [CORM-3, tricarbonylchloro(glycinato)ruthenium(II)]
[1]; given 1 hour before onset of ischemia, 24 hours after reperfusion
  Levels of plasma creatinine: significantly decreased

## CC(C)C[C@@H](C=O)NC(=O)[C@H](CC(C)C)NC(=O)[C@H](CC(C)C)NC(=O)OCc1ccccc1 [MG-132] (Cbz-Leu-Leu-Leu-aldehyde)
[2]
  Tonic NGAL and Luc2/mC expression in testis: suppressed
[2]; NGAL reporter mouse
  LipidA induced Luc/mC expression: reduced LipidA induced Luc/mC expression

## CN(C)CC(=O)Nc1ccc2[nH]c(=O)c3ccccc3c2c1 [PJ34]
[3]
  Local production of inflammatory mediators: modulates the local production of inflammatory mediators

## N.N.[Cl][Pt][Cl] [cisplatin]
[4]
  Response of primary reporter kidney cells (luciferase): direct effect on renal epithelia

## CC(=O)O[C@H]1C(=O)[C@@]2(C)[C@H]([C@H](OC(=O)c3ccccc3)[C@]3(O)C[C@H](OC(=O)[C@H](O)[C@@H](NC(=O)c4ccccc4)c4ccccc4)C(C)=C1C3(C)C)[C@]1(OC(C)=O)CO[C@@H]1C[C@@H]2O [taxol]
[5]
  Cyst growth: limit cyst growth

## [C-]#[O+].[C-]#[O+].[C-]#[O+].[C-]#[O+].[C-]#[O+].[C-]#[O+].[Cl][Ru][Cl].[Cl][Ru][Cl] [tricarbonyldichlororuthenium(II) dimer]
[1]; in vivo
  Levels of plasma creatinine: significantly decreased

## Cobalt
[6]
  NGAL expression: trigger NGAL expression

## LipidA
[7]
  NGAL message induced in the kidney: 30 fold
[8]
  Localisation of Ngal expression in kidney: predominate expression in inner medullary tubules
[8]; listed as lipidA
  Localisation of Ngal expression in kidney: expressed in tubules
[9]
  NGAL-luciferase activity: induced NGAL-luciferase activity
[4]
  Response of primary reporter kidney cells (luciferase): responded in dose-dependent manner
[10]
  NGAL activity assayed by luciferase (Luc2/mC response): graded Luc-mC response
[10]; listed as lipidA
  NGAL activity assayed by luciferase (Luc2/mC response): upregulated and dose dependent
[10]; same mice at a later time after volume depletion
  Luc/mC induction, positive control: effectively induced Luc/mC
[11]; 30 mg/kg dose of LipidA
  Azotemia: induced Luc/mC and azotemia
[11]; low doses of LipidA (Luc/mC still induced)
  Azotemia / serum creatinine: without azotemia or a change in serum creatinine
